The subject of the assay is P388 leukemia ip, CD2F1 mice, survival T/C. The experiment in a line: NCI In Vivo Anticancer Drug Screen. Data for tumor model P388 Leukemia (intraperitoneal) in CD2F1 (CDF1) mice. The following applies: endpoint: median survival time, higher = longer survival. The gist of the method:
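Mice carrying the transplanted tumor received test compound or vehicle. Survival was recorded in each group, and the value is the treated-group measurement divided by that of the vehicle-treated control group.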

Setting [1] is: dose: 50.0 mg/kg/injection, schedule: Q01DX009 (ip), vehicle: saline with Tween-80.
Setting [2] is: dose: 100.0 mg/kg/injection, schedule: Q01DX009 (ip), vehicle: saline with Tween-80.
Setting [3] is: dose: 200.0 mg/kg/injection, schedule: Q01DX009 (ip), vehicle: saline with Tween-80.
Where [4] appears, read: dose: 50.0 mg/kg/injection, schedule: Q01DX005 (ip), vehicle: Klucel (hydroxypropylcellulose) (HPC).
Setting [5] is: dose: 100.0 mg/kg/injection, schedule: Q01DX005 (ip), vehicle: Klucel (hydroxypropylcellulose) (HPC).
[6] abbreviates: dose: 200.0 mg/kg/injection, schedule: Q01DX005 (ip), vehicle: Klucel (hydroxypropylcellulose) (HPC).

“And” between values parts separate entries of the source, which are not always exact repeats. Equal entries are not always repeated. Inconclusive results and toxic doses are left out.

Take `O=[N+]([O-])c1cc(NC(=S)SCc2ccc(Cl)cc2)ccc1Cl`: the T/C by setting is: (dose: 25.0 mg/kg/injection, schedule: Q01DX009 (ip), vehicle: saline with Tween-80) 106 % of control; (dose: 25.0 mg/kg/injection, schedule: Q01DX009 (ip), vehicle: saline) 105 % of control; under setting [1], 100 % of control; (dose: 50.0 mg/kg/injection, schedule: Q01DX009 (ip), vehicle: saline) 100 % of control; (dose: 50.0 mg/kg/injection, schedule: Q01DX009 (ip), vehicle: suspension in saline) 109 % of control; under setting [2], 106 % of control. The T/C (dose: 100.0 mg/kg/injection, schedule: Q01DX009 (ip), vehicle: saline) is 107 % of control; the T/C (dose: 100.0 mg/kg/injection, schedule: Q01DX009 (ip), vehicle: suspension in saline) was 108 % of control; the T/C under setting [3] is 106 % of control; the T/C (dose: 200.0 mg/kg/injection, schedule: Q01DX009 (ip), vehicle: saline) was 110 % of control; the T/C (dose: 200.0 mg/kg/injection, schedule: Q01DX009 (ip), vehicle: suspension in saline) was 121 % of control.
For `Nc1ncnc2c1ncn2C1(CO)OCC(O)C(O)C1O` (configuration not stated), the T/C reads like this: under setting [4], 101 % of control; under setting [5], 100 % of control; under setting [6], 101 % of control.
On to `COc1cc(OC)c(NC(=O)NNC(=O)C(=O)NC2CC2)cc1Cl`, for which the T/C is, setting by setting: under setting [1], 99 % of control; under setting [2], 97 % of control; under setting [3], 98 % of control.
As for `O=C(O)c1cccc(SS(=O)(=O)c2cccc(C(=O)O)c2)c1`, the T/C under setting [4] was 109 % of control, the T/C under setting [5] was 112 % of control and the T/C under setting [6] is 107 % of control.
Turning to `C/C=C/C=C/c1cc2cc3c(c(O)c2c(=O)[nH]1)C1(CC3)C(O)=c2c(=O)c3c(=O)cc(OC)c(=O)c=3c(=O)c2=C1O` (configuration not stated), the T/C (dose: 0.12 mg/kg/injection, schedule: Q01DX009 (ip), vehicle: other) is 116 % of control; the T/C (dose: 0.25 mg/kg/injection, schedule: Q01DX009 (ip), vehicle: other) was 118 % of control; the T/C (dose: 0.5 mg/kg/injection, schedule: Q01DX009 (ip), vehicle: other) is 87 % of control and 100 % of control; the T/C (dose: 0.75 mg/kg/injection, schedule: Q01DX009 (ip), vehicle: Klucel (hydroxypropylcellulose) (HPC)) was 98 % of control; the T/C (dose: 1.0 mg/kg/injection, schedule: Q01DX009 (ip), vehicle: other) is 113 % of control; the T/C (dose: 1.5 mg/kg/injection, schedule: Q01DX009 (ip), vehicle: Klucel (hydroxypropylcellulose) (HPC)) is 99 % of control. In addition, the T/C reads like this: (dose: 1.5 mg/kg/injection, schedule: Q01DX009 (ip), vehicle: saline with Tween-80) 112 % of control; (dose: 6.0 mg/kg/injection, schedule: Q01DX009 (ip), vehicle: Klucel (hydroxypropylcellulose) (HPC)) 156 % of control; (dose: 8.0 mg/kg/injection, schedule: Q01DX009 (ip), vehicle: other) 123 % of control; (dose: 12.0 mg/kg/injection, schedule: Q01DX009 (ip), vehicle: Klucel (hydroxypropylcellulose) (HPC)) 192 % of control; (dose: 12.0 mg/kg/injection, schedule: Q01DX009 (ip), vehicle: saline with Tween-80) 87 % of control; (dose: 63.0 micrograms/kg/injection, schedule: Q01DX009 (ip), vehicle: other) 101 % of control. Moreover, the T/C by setting is: (dose: 63.0 micrograms/kg/injection, schedule: Q01DX009 (ip), vehicle: water) 101 % of control and 110 % of control; (dose: 125.0 micrograms/kg/injection, schedule: Q01DX009 (ip), vehicle: other) 99 % of control; (dose: 125.0 micrograms/kg/injection, schedule: Q01DX009 (ip), vehicle: water) 112 % of control and 119 % of control; (dose: 250.0 micrograms/kg/injection, schedule: Q01DX009 (ip), vehicle: other) 102 % of control; (dose: 250.0 micrograms/kg/injection, schedule: Q01DX009 (ip), vehicle: water) 119 % of control and 120 % of control; (dose: 500.0 micrograms/kg/injection, schedule: Q01DX009 (ip), vehicle: other) 114 % of control. The T/C was 153 % of control (dose: 500.0 micrograms/kg/injection, schedule: Q01DX009 (ip), vehicle: water); 115 % of control (dose: 1000.0 micrograms/kg/injection, schedule: Q01DX009 (ip), vehicle: other); 160 % of control and 178 % of control (dose: 1000.0 micrograms/kg/injection, schedule: Q01DX009 (ip), vehicle: water); 175 % of control (dose: 2000.0 micrograms/kg/injection, schedule: Q01DX009 (ip), vehicle: water).

The record behind these values is PubChem BioAssay AID330 (DTP/NCI, 2004).
